± gives the expanded uncertainty stated by the source.
Details: Liquid; for mass density: 298.15 K, 101.33 kPa

Compound | mass density [kg/m3] | Normal boiling temperature [°C]
CO [methanol] | 786.5 ± 5 | 64.52 ± 0.03
CCO [ethanol] | 785.1 ± 5 | 78.31 ± 0.03
